Values after ≈ are worked out from the molar mass of the structure shown. Where a SMILES comes first, the peptide text is derived from it. Where no end group is shown, it is not given here. [ ]: non-standard residue; d: D form. The star is where a group is joined. Orn(α-tetramethylguanidino) = CN(C)C(=N[C@@H](CCCN)C(=O)*)N(C)C; Orn = NCCC[C@H](N)C(=O)O
Key:
S. typhi S5 = assay type: cell-based, Salmonella typhi; conditions: S5, 20 h
Outline: (§1)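 Read-out: A595 after 20 hrs at 37° C. Bacteria from overnight NB culture, 5×10^6 CFU/mL in 1% TSB, mixed with twofold peptide dilutions (final 125 μg/mL–60 ng/mL). Triplicate wells; water negative control.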

E. coli D31 = assay type: cell-based, Escherichia coli; conditions: D31, 20 h
Outline: as §1

[1] = tested on: S. enterica subsp. Enterica serovar. typhi G10215 ATCC 700408; assay type: cell-based, Salmonella enterica; conditions: ATCC 700408, 20 h
Outline: as §1

M. luteus ATCC 10240 = assay type: cell-based, Micrococcus luteus; conditions: ATCC 10240, 20 h
Outline: (§2)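 Bacteria grown overnight in NB at 37° C. were adjusted to 5×10^6 CFU/mL in 1% TSB and mixed 1:1 with a two-fold peptide series (final 125 μg/mL–60 ng/mL). After 20 hrs at 37° C., A595 was read; triplicates.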

E. coli 1103 = assay type: cell-based, Escherichia coli; conditions: 1103, 20 h
Outline: as §2

K. pneumonia 681 = assay type: cell-based, Klebsiella pneumoniae; conditions: 20 h
Outline: as §2

B. subtilis 347 = assay type: cell-based, Bactillus subtillis; conditions: 347, 20 h
Outline: as §2

E. coli BL21 AI = tested on: E. coli BL21 AI
Protocol: The induction of resistance strains was determined according to the macro dilution method under NCCLS-conditions (National Committee for Clinical Laboratory Standards—now Clinical and Laboratory Standards Institute Wayne, Pa., USA, NCCLS-Guideline, M7-A5, Vol. 20, Nr. 2; 2000).
Firstly, minimal inhibition concentrations (MIC) were determined for the peptides to be examined as described in example 3.2. To determine induction of resistance continued dilutions of the peptide with concentrations ranging from 3 fold to 4 fold above to below the MIC were chosen. The test was performed in sterile 96-well microtiter plates with round bottoms (Polystyrene, U-bottom, Greiner Bio-One GmbH, Germany) and 200 μL final volume per well. The freeze-dried peptide or peptide derivatives were dissolved in water and diluted in respect to the MIC in 1% TSB (tryptic soy broth) to obtain a volume of 100 μL. […] The dilutions within the series were twofold.
The bacteria, E. coli BL21 AI, were grown overnight at 37° C. in nutrient broth (NB, Carl Roth GmbH+Co. KG, Karlsruhe, Germany) and diluted to 5×10^6 colony forming units (CFU)/mL in 1% TSB. To start the assay 100 μL of the bacteria dilution was added per well of the microtiter plate loaded with peptide. After incubating the plates for 24 h at 37° C., the absorption was determined at 595 nm using a TECAN microtiter plate reader (Tecan, Germany).
MIC values were calculated as described in example 3.2. The test was repeated using new dilution series with peptide concentrations adapted to the new determined MIC values and using the bacteria culture that grew despite the presence of the inhibitory peptide. This bacteria culture (1st passage) was diluted to 5×10^6 CFU/mL in 1% TSB. […] The test was repeated again with using new dilution series with peptide concentrations adapted to the new determined MIC values and using the bacteria culture that grew despite the presence of the inhibitory peptide (2nd passage). The same procedure was applied for about 8 further passages.
As a control a untreated E. coli BL21 AI culture was chosen and passaged without inhibitory peptides. All peptides and peptide derivatives were measured in triplicates. The number of passages was chosen dependent on the rapidity of induction of resistance and commonly was 10 passages over 10 continuous days.

in vitro = in vitro ADME, mouse; conditions: 25% aqueous mouse serum, 37° C.; read-out: Half-life time
Outline: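 Peptide or peptidomimetic (0.5 mg/mL aqueous stock) incubated in 25% pooled mouse serum at 37 °C, sampled at 0–6 h, in duplicate. Proteins precipitated with 15% TCA; supernatants neutralized and analyzed by RP-HPLC with 0.1% TFA. Degradation products identified by MALDI-TOF/TOF-MS.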

E. coli 10233 = assay type: cell-based, Escherichia coli; conditions: 10233, 20 h
Outline: as §2

[2] = cited from earlier work
[3] = In vivo distribution of fluorescent-labelled peptide (imaging); parameters: species or system female Balb/c mice; conditions: mice, 40 μg i.p., 60-65 min
Protocol: The in vivo distribution was measured in mice using fluorescent-labelled peptides derivatives.
Near-infrared absorbing fluorescent dye Dy675 (Dyomics GmbH, Jena, Germany) was activated with DIC and coupled to the N-terminus of the peptide derivatives after completion of the solid phase peptide synthesis (see example 1). Afterwards the peptides were cleaved with TFA and purified by RP-HPLC (see example 1).
Forty μg of the labelled peptide derivatives were injected subcutaneously (sc) or intra-peritional (ip) into shaved and isoflurane anesthetized female Balb/c mice. The animals were placed into the fluorescence microscope chamber under continuous isoflurane exposure. Fluorescence exposure pictures were taken with an IVIS microscope set to 695 nm emission wavelength at every minute in the first 10 min after peptide addition and every 5 min afterwards until 65 min.

human erythrocytes = assay: Hemolytic assay; assay type: cell-based; conditions: 1 h 37° C., relative to 0.1% Triton X-100, peptide concentration 600 μg/mL
Protocol: To determine whether the peptides and peptide derivatives according to the invention were toxic to mammalian cells, several peptides and peptidomimetics from Example 1 above, a positive control, and a negative control were examined for hemolytic activity. The hemolytic activity was assayed with human erythrocytes. A human erythrocyte concentrate was provided in sodium chloride […]-glucose-mannitol buffer from the Leipzig University Hospital (Leipzig, Germany). The erythrocytes were centrifuged at 1000 G and washed three times with 10 volumes of cold phosphate-buffered saline (PBS, pH 7.4). The erythrocytes were diluted to a final concentration of 1% in PBS. One hundred microliters of this human erythrocyte suspension in PBS was added to each well of a V-shaped 96-well polypropylene microtiter plate (Greiner Bio-One GmbH). […] The microtiter plate was incubated at 37° C. for 1 h and subsequently centrifuged for 10 min at 1000 G. One hundred microliters of the supernatant was transferred to a 96-well flat-bottomed polystyrene microtiter plate (Greiner Bio-One GmbH) and the absorption at 405 nm recorded in a micro plate spectrophotometer (Tecan) to evaluate the heme release. […] The hemolysis percentage was calculated by the following equation[44]: ([…])×100% with E=Extinction at 405 nm All hemolytic assays were performed in duplicates. […]

Compound | MIC S. typhi S5 (S. typhi S5) [µg/mL] | MIC E. coli D31 (E. coli D31) [µg/mL] | MIC S. enterica subsp. Enterica serovar. typhi G10215 ATCC 700408 [1] [µg/mL] | MIC M. luteus ATCC 10240 (M. luteus ATCC 10240) [µg/mL] | MIC K. pneumonia 681 (K. pneumonia 681) [µg/mL] | MIC B. subtilis 347 (B. subtilis 347) [µg/mL] | induction of resistance (E. coli BL21 AI; 10 passages) | further results
CC[C@H](C)[C@H](NC(=O)[C@H](Cc1ccc(O)cc1)NC(=O)[C@@H](NC(=O)[C@@H]1CCCN1C(=O)[C@H](CCCNC(=N)N)NC(=O)[C@H](CC(N)=O)NC(=O)[C@H](CC(N)=O)NC(=O)[C@H](CCCN)N=C(N(C)C)N(C)C)C(C)C)C(=O)N1CCC[C@H]1C(=O)N[C@@H](CCCNC(=N)N)C(=O)N1CCC[C@H]1C(=O)N[C@@H](CCCNC(=N)N)C(=O)N1CCC[C@H]1C(=O)N1CCC[C@H]1C(=O)N[C@@H](Cc1c[nH]cn1)C(=O)N1CCC[C@H]1C(=O)N[C@@H](CCCNC(=N)N)C(=O)N[C@@H](CC(C)C)C(=O)O [compound 137] ({Orn(α-tetramethylguanidino)}-NNRPVYIPRPRPPHPRL-OH; N-terminus and C-terminus assumed) | <1 | <1 | <1 | 8 (≈ 3.49 µM) | 2 (≈ 0.873 µM) | 64 (≈ 27.9 µM) | no induction of resistance was observed at all | MIC E. coli 1103 (E. coli 1103): 8 µg/mL (≈ 3.49 µM)
H-GNNRPVYIPQPRPPHPRL-OH [SEQ ID No. 2, GNNRPVYIPQPRPPHPRL-OH, reference compound] | – | – | – | – | – | – | – | passage after which first resistance strains were obtained (E. coli BL21 AI; 10 passages): 2nd; MIC-value in the 10th passage (E. coli BL21 AI; 10th passage): 128 µg/mL
CC[C@H](C)[C@H](NC(=O)[C@H](Cc1ccc(O)cc1)NC(=O)[C@@H](NC(=O)[C@@H]1CCCN1C(=O)[C@H](CCCNC(=N)N)NC(=O)[C@H](CC(N)=O)NC(=O)[C@H](CC(N)=O)NC(=O)[C@H](CCCN)N=C(N(C)C)N(C)C)C(C)C)C(=O)N1CCC[C@H]1C(=O)N[C@@H](CCCNC(=N)N)C(=O)N1CCC[C@H]1C(=O)N[C@@H](CCCNC(=N)N)C(=O)N1CCC[C@H]1C(=O)N1CCC[C@H]1C(=O)N[C@@H](Cc1c[nH]cn1)C(=O)N1CCC[C@H]1C(=O)N[C@@H](CCCNC(=N)N)C(=O)N[C@@H](CC(C)C)C(N)=O [compound 88] ({Orn(α-tetramethylguanidino)}-NNRPVYIPRPRPPHPRL-NH2; N-terminus and C-terminus assumed) | 0.125 (≈ 0.0546 µM) | 0.5 (≈ 0.218 µM) | 0.125 (≈ 0.0546 µM) | 1.95 (≈ 0.851 µM) | 7.81 (≈ 3.41 µM) | 62.5 (≈ 27.3 µM) | no induction of resistance was observed at all | half-life (in vitro): 15 min; MIC E. coli 10233 (E. coli 10233): 1.95 µg/mL (≈ 0.851 µM)
GNNRPVYIPQPRPPHPRL [apidaecin] | – | – | – | – | – | – | – | degradation in mammalian serum [2]: completely degradaded within one hour
160 (Dy675-[Orn]NNRPVYIPRPRPPHPRL-NH2) [compound 160] | – | – | – | – | – | – | – | in vivo biodistribution (fluorescence imaging) [3]: enriched in brain, liver, and both kidneys
(p-tert-Octylphenoxy)polyethoxyethanol [Triton X-100 ®] | – | – | – | – | – | – | – | Haemolysis rate (human erythrocytes): 100%
